Literature values in patent publication US6846495B2, “Compositions having improved delivery of actives” (The Procter & Gamble Company, priority 1999, dated 2005).

Settings: intranasal formulations

## COc1ccc2c(c1)[C@@]13CCCC[C@H]1[C@@H](C2)N(C)CC3 [Dextromethorphan, 3-methoxy-17-methylmorphinan]
  bioavailability: substantial increases in bioavailability
